Laboratory results taken from article PMC10786919, “Design-rules for stapled peptides with in vivo activity and their application to Mdm2/X antagonists” (Nature Communications, 2024).
In brackets after ≈: the same amount, converted by molar mass. Read-outs that look alike come from different tables or passages of the source. Positions of bridges follow the written chain, without caps; N, C: chain ends. Non-standard residues stand in square brackets, D forms with d. Residues, ends and D or L forms follow the SMILES beside them. Lys(N3) = [N-]=[N+]=NCCCC[C@H](N)C(=O)O; R8 = C=CCCCCCC[C@@](C)(N)C(=O)O; Cba = N[C@@H](CC1CCC1)C(=O)O; S5 = C=CCCC[C@](C)(N)C(=O)O; βAla = NCCC(=O)O

Key:
[1] = Lactate dehydrogenase (LDH) release assay; format: cell-based
In short: (§1)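 Geometric means of at least three independent biological runs are given for LDH release measured in HCT116 cells stably expressing a p53-driven β-lactamase reporter. Plating density was 8000 cells/well; DMSO in wells was 0.5%.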

HCT116 cells = test: Lactate dehydrogenase (LDH) release assay; format: cell-based
In short: as §1

[2] = Solubility assay (kinetic solubility, PBS pH 7); format: physicochemical; conditions: pH 7, PBS; for solubility kinetic: pH 7, aqueous buffer, kinetic from dmso stock, read-out: Solubility
In short: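 Std: 10 mM stock → 100 µM in ACN/MeOH/DMSO (10:80:10). Sol. [µM] = (sample peak area / std peak area) × std conc.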

in vitro = test: in vitro
In short: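 Azido-peptide permeability was read as loss of NanoBRET signal (donor 450 nm, acceptor 610 nm) after adding NanoBret618-azide at 10 μM final.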

EPSA = format: physicochemical
[3] = Experimental LogD (partition coefficient); conditions: for logD: not stated, Partition Coeff LogD
[4] = Nanoclick permeability assay EC50
[5] = 0% FBS 4Hr, read-out: LDH: Cytotoxicity assay: EC50
[6] = 10% FBS 16Hr, read-out: LDH: Cytotoxicity assay: EC50

SMILES	EC50 ([1]; LDH: Cytotoxicity assay: EC50)	LDH: Cytotoxicity assay: % Effect (HCT116 cells)	solubility kinetic [2]	cell entry EC50 (in vitro; [4])	EPSA (EPSA; EPSA)	logD [3]	EC50 [1, 5]	EC50 [1, 6]	LDH: Cytotoxicity assay: % Effect (HCT116 cells; 0% FBS 4Hr)	LDH: Cytotoxicity assay: % Effect (HCT116 cells; 10% FBS 16Hr)	Solubility [2]	cell entry EC50 (in vitro)	Partition Coeff LogD [3]	EPSA (EPSA)
CC(=O)N[C@@H](CCCCN=[N+]=[N-])C(=O)NCCC(=O)N[C@@H](CC(C)C)C(=O)N[C@H](C(=O)N[C@@H](Cc1ccccc1)C(=O)N[C@]1(C)CCCCCCC=CCCC[C@@](C)(C(=O)N[C@@H](CO)C(=O)N[C@@H](C)C(=O)N[C@@H](C)C(N)=O)NC(=O)[C@H](CCC(N)=O)NC(=O)[C@H](Cc2ccc(O)cc2)NC(=O)[C@H](Cc2c[nH]c3ccccc23)NC(=O)[C@H](CC2CCC2)NC(=O)[C@H](CCC(=O)O)NC(=O)[C@H](C)NC1=O)[C@@H](C)O [MP-205] (Ac-[Lys(N3)][βAla]LTF[R8]AE[Cba]WYQ[S5]SAA-NH2; staple 6-13)	> 50700 nM	-2.394%	16 µM (≈ 31.5 µg/mL)	276 nM	198 A^2	3.02	–	–	–	–	–	–	–	–
CC(=O)N[C@@H](CS)C(=O)N[C@@H](CCCCN=[N+]=[N-])C(=O)NCCC(=O)N[C@@H](C)C(=O)N[C@H](C(=O)N[C@@H](Cc1ccccc1)C(=O)N[C@]1(C)CCCCCCC=CCCC[C@@](C)(C(=O)N[C@@H](C)C(=O)N[C@@H](C)C(=O)N[C@@H](C)C(N)=O)NC(=O)[C@H](CC2CCC2)NC(=O)[C@H](C)NC(=O)[C@H](C)NC(=O)[C@H](Cc2c[nH]c3ccccc23)NC(=O)[C@H](Cc2ccc(O)cc2)NC(=O)[C@H](C)NC1=O)[C@@H](C)O [MP-987] (Ac-C[Lys(N3)][βAla]ATF[R8]AYWAA[Cba][S5]AAA-NH2; staple 7-14)	> 50000 nM	–	12 µM (≈ 22.8 µg/mL)	217 nM	180 A^2	1.12	–	–	–	–	–	–	–	–
CC(=O)N[C@@H](CCCCN=[N+]=[N-])C(=O)N[C@H](C(=O)N[C@@H](Cc1ccccc1)C(=O)N[C@]1(C)CCCCCCC=CCCC[C@@](C)(C(=O)N[C@@H](C)C(=O)N[C@@H](C)C(=O)N[C@@H](C)C(=O)N[C@@H](C)C(=O)N[C@@H](C)C(=O)N[C@H](C)C(N)=O)NC(=O)[C@H](CC2CCC2)NC(=O)[C@H](CCC(N)=O)NC(=O)[C@H](C)NC(=O)[C@H](Cc2c[nH]c3ccccc23)NC(=O)[C@H](Cc2ccc(O)cc2)NC(=O)[C@H](CCC(=O)O)NC1=O)[C@@H](C)O [MP-062] (Ac-[Lys(N3)]TF[R8]EYWAQ[Cba][S5]AAAAA[dA]-NH2; staple 4-11)	–	–	–	–	201 A^2	–	> 50700 nM	> 50700 nM	5.433%	10.66%	Poorly Behaved	2080 nM	Poorly Behaved	–
CC(=O)N[C@@H](CCC(=O)O)C(=O)N[C@@H](CCCCN=[N+]=[N-])C(=O)NCCCCCC(=O)N[C@H](C(=O)N[C@@H](CO)C(=O)N[C@@H](Cc1ccccc1)C(=O)N[C@]1(C)CCCCCCC=CCCC[C@@](C)(C(N)=O)NC(=O)[C@H](CC(C)C)NC(=O)[C@H](CC(C)C)NC(=O)[C@H](C)NC(=O)[C@H](Cc2c[nH]c3ccccc23)NC(=O)[C@H](Cc2ccc(O)cc2)NC(=O)[C@H](CCC(=O)O)NC1=O)[C@@H](C)O [MP-027]	> 50000 nM	2.385%	–	415 nM	–	–	–	–	–	–	Poorly Behaved	–	Poorly Behaved	Poorly Behaved
CC(=O)N[C@@H](CCCCN=[N+]=[N-])C(=O)NCCC(=O)N[C@@H](CC(C)C)C(=O)N[C@H](C(=O)N[C@@H](Cc1ccccc1)C(=O)N[C@]1(C)CCCCCCC=CCCC[C@@](C)(C(=O)N[C@@H](CO)C(=O)N[C@@H](C)C(=O)N[C@@H](C)C(N)=O)NC(=O)[C@H](CC2CCC2)NC(=O)[C@H](C)NC(=O)[C@H](CCC(N)=O)NC(=O)[C@H](Cc2c[nH]c3ccccc23)NC(=O)[C@H](Cc2ccc(O)cc2)NC(=O)[C@H](CCC(=O)O)NC1=O)[C@@H](C)O [MP-4203] (Ac-[Lys(N3)][βAla]LTF[R8]EYWQA[Cba][S5]SAA-NH2; staple 6-13)	> 50700 nM	15.26%	179 µM (≈ 353 µg/mL)	1200 nM	190 A^2	2.71	–	–	–	–	–	–	–	–
CC(=O)N[C@@H](CCCCN=[N+]=[N-])C(=O)N[C@@H](CCCCN)C(=O)N[C@@H](CC(C)C)C(=O)N[C@H](C(=O)N[C@@H](Cc1ccccc1)C(=O)N[C@]1(C)CCCCCCC=CCCC[C@@](C)(C(=O)N[C@@H](CO)C(=O)N[C@@H](C)C(=O)N[C@@H](C)C(N)=O)NC(=O)[C@H](CC2CCC2)NC(=O)[C@H](CCC(N)=O)NC(=O)[C@H](C)NC(=O)[C@H](Cc2c[nH]c3ccccc23)NC(=O)[C@H](Cc2ccc(O)cc2)NC(=O)[C@H](CCC(=O)O)NC1=O)[C@@H](C)O [MP-025]	> 50000 nM	3.386%	3 µM (≈ 6.08 µg/mL)	1170 nM	205 A^2	2.83	–	–	–	–	–	–	–	–
CC(=O)N[C@@H](CCCCN=[N+]=[N-])C(=O)NCCC(=O)N[C@@H](CC(C)C)C(=O)N[C@@H](CC1CCC1)C(=O)N[C@@H](Cc1ccc(O)cc1)C(=O)N[C@]1(C)CCCCCCC=CCCC[C@@](C)(C(=O)N[C@@H](C)C(=O)N[C@@H](C)C(=O)N[C@@H](C)C(N)=O)NC(=O)[C@H](Cc2ccccc2)NC(=O)[C@H](Cc2c[nH]c3ccccc23)NC(=O)[C@H](CCC(=O)O)NC(=O)[C@H]([C@@H](C)O)NC(=O)[C@H](CCC(N)=O)NC(=O)[C@H](CO)NC1=O [MP-4204] (Ac-[Lys(N3)][βAla]L[Cba]Y[R8]SQTEWF[S5]AAA-NH2; staple 6-13)	> 50700 nM	16.98%	–	669 nM	191 A^2	–	–	–	–	–	Poorly Behaved	–	Poorly Behaved	–
CC(=O)N[C@@H](CCCCN=[N+]=[N-])C(=O)NCCC(=O)N[C@@H](CC(C)C)C(=O)N[C@H](C(=O)N[C@@H](Cc1ccccc1)C(=O)N[C@]1(C)CCCCCCC=CCCC[C@@](C)(C(=O)N[C@@H](CCC(=O)O)C(=O)N[C@@H](CCC(=O)O)C(=O)N[C@@H](C)C(=O)N[C@@H](C)C(=O)N[C@@H](C)C(=O)N[C@@H](C)C(N)=O)NC(=O)[C@H](CC2CCC2)NC(=O)[C@H](CCC(N)=O)NC(=O)[C@H](CCC(=O)O)NC(=O)[C@H](Cc2c[nH]c3ccccc23)NC(=O)[C@H](Cc2ccc(O)cc2)NC(=O)[C@H](CCC(=O)O)NC1=O)[C@@H](C)O [MP-3685, AZIDE-ATSP-7041 (A8E, EEAAAA TAIL)] (Ac-[Lys(N3)][βAla]LTF[R8]EYWEQ[Cba][S5]EEAAAA-NH2; staple 6-13)	–	–	150 µM (≈ 351 µg/mL)	–	195 A^2	1.99	> 50700 nM	> 50700 nM	10%	-3.573%	–	1260 nM	–	–
CC(=O)N[C@@H](CCCCN=[N+]=[N-])C(=O)N[C@@H](CCCCN)C(=O)N[C@@H](CCCCN)C(=O)N[C@@H](CC(C)C)C(=O)N[C@H](C(=O)N[C@@H](Cc1ccccc1)C(=O)N[C@]1(C)CCCCCCC=CCCC[C@@](C)(C(=O)N[C@@H](CO)C(=O)N[C@@H](C)C(=O)N[C@@H](C)C(N)=O)NC(=O)[C@H](CC2CCC2)NC(=O)[C@H](CCC(N)=O)NC(=O)[C@H](C)NC(=O)[C@H](Cc2c[nH]c3ccccc23)NC(=O)[C@H](Cc2ccc(O)cc2)NC(=O)[C@H](CCC(=O)O)NC1=O)[C@@H](C)O [MP-026]	> 50000 nM	25.62%	3 µM (≈ 6.47 µg/mL)	1030 nM	213 A^2	–	–	–	–	–	–	–	Poorly Behaved	–
CC(=O)N[C@@H](CCCCN=[N+]=[N-])C(=O)NCCC(=O)N[C@@H](CC(C)C)C(=O)N[C@H](C(=O)N[C@@H](Cc1ccccc1)C(=O)N[C@@]1(C)CCCCCCC=CCCC[C@@](C)(C(=O)N[C@@H](CO)C(=O)N[C@@H](C)C(=O)N[C@@H](C)C(N)=O)NC(=O)[C@H](CC2CCC2)NC(=O)[C@H](CCC(N)=O)N(C)C(=O)[C@H](C)NC(=O)[C@H](Cc2c[nH]c3ccccc23)NC(=O)[C@H](Cc2ccc(O)cc2)NC(=O)[C@H](CCC(=O)O)NC1=O)[C@@H](C)O [MP-297]	> 50700 nM	–	108 µM (≈ 213 µg/mL)	1530 nM	183 A^2	2.5	–	–	–	–	–	–	–	–
CC(=O)N[C@@H](CCCCN=[N+]=[N-])C(=O)NCCC(=O)N[C@H](C(=O)N[C@@H](CO)C(=O)N[C@@H](Cc1ccccc1)C(=O)N[C@]1(C)CCCCCCC=CCCC[C@@](C)(C(=O)N[C@@H](CO)C(=O)N[C@@H](C)C(=O)N[C@@H](C)C(N)=O)NC(=O)[C@H](CC(C)C)NC(=O)[C@H](CC(C)C)NC(=O)[C@H](C)NC(=O)[C@H](Cc2c[nH]c3ccccc23)NC(=O)[C@H](Cc2ccc(O)cc2)NC(=O)[C@H](CCC(=O)O)NC1=O)[C@@H](C)O [MP-686]	> 50700 nM	–	2 µM (≈ 3.83 µg/mL)	38.5 nM	193 A^2	2.7	–	–	–	–	–	–	–	–
